These results are taken from US10696688B2, “Fused pyrimidines as isoform selective phosphoinositide-3-kinase-alpha inhibitors and process for preparation thereof” (Council of Scientific and Industrial Research, priority 2015, dated 2020).

In brackets after ≈: the same amount, converted by molar mass. Several values for one entry are separate records, joined by “and”; a condition that tells them apart may be missing. Equal values may be shown once. Read-outs that look alike come from different tables or passages of the source.

Data set [1] addresses PI3K-alpha (Homo sapiens, UniProt P42336). Nature of the data set: PI3K-α assay (ADP-Glo). The class given is biochemical. As to conditions: for inhibition at 0.5 µM / % PI3Kα inhibition at 500 nM: at 500 nM (0.5 μM), NI = no inhibition at tested concentration; for inhibition at 0.5 µM: read-out: % PI3Kα inhibition at 500 nM; for % PI3Kα inhibition at 500 nM: 0.5 µM. The method, then: Compounds proposed in present invention were evaluated for their inhibitory activity on phosphoinositide-3-kinase-α and other isoforms (β, γ and δ). The preliminary screening was performed at 0.5 μM. The protocols used for these bioassays are as follows:
PI3K-alpha (diluted in 12.5 mM Glycine-NaOH (pH 8.5), 50 mM KCl, 2.5 mM MgCl2, 1 mM DTT, 0.05% CHAPS) is assayed in total volume of 20 μl containing 12.5 mM glycine-NaOH (pH 8.5), 50 mM KCl, 2.5 mM MgCl2, 1 mM DTT, 0.05% CHAPS, 0.01 mM ATP and 0.05 mM diC8 PIP2. The enzyme is assayed for 80 min after which 20 μl of ADP-Glo reagent is added. After a further incubation of 40 min, 40 μl of Kinase Detection Buffer is added. The assays are incubated for 40 min and then read on PerkinElmer Envision for 1 sec/well.
A general note: ADP-Glo first removes unused ATP, then detects ADP through luciferase.

Data set [2] is described as follows: Thermodynamic aqueous solubility, 96-well plate protocol. As to conditions: for solubility: 25 °C, pH 7, water, thermodynamic from solid. The class given is physicochemical. How it is done:
The thermodyanamic aqueous solubility was determined using 96-plate plate protocol (Bharate, S. S. and Vishwakarma, R. A. 2015, Bioorg. Med. Chem. Lett. 25, 1561-1567). […] Briefly, the compounds were loaded into 96-well plate in the form of methanolic solution, followed by evaporation of solvent to get 1, 2, 4, 8, 16, 25, 40, 80, 160 and 300 μg of compound in solid form in wells. Thereafter, 200 μl of dissolution medium was added to the wells and plates were shaken horizontally at 300 rpm for 4 h at room temperature (25±1° C.). The plates were covered with aluminium foil and were kept overnight at room temperature for equilibration. Later, the plates were centrifuged at 3000 rpm for 15 min (Jouan centrifuge BR4i). Supernatant (50 μl) was withdrawn into UV 96-well plates (Corning® 96 Well Clear Hat Bottom UV-Transparent Microplate) for analyses with microplate reader (Molecular Devices, USA) at corresponding λmax of the sample. The analysis was performed in triplicate for each compound. The solubility curve of concentration (μg/mL) vs absorbance was plotted to find out saturation point and the corresponding concentration was noted.

Data set [3] concerns A-549 (lung cancer). Nature of the data set: Cytotoxicity, MTT assay. Type of data set: cell-based. To be noted: Homo sapiens, A549, 48 h treatment. How it is done:
(§1) Selected compounds proposed in the present invention were evaluated for their cytotoxic effect against panel of 3 cancer cell line viz. MIAPaCa-2 (pancreatic cancer), A-549 (lung cancer), and MDA-MB-231 (breast cancer) using MTT assay. In each well of a 96-well plate, 3×10^3 cells were grown in 100 μL of medium. After 24 h, each test molecules were added to achieve a final concentration of 10 to 0.01 μmol/L, respectively. After 48 h of treatment, 20 μL of 2.5 mg/mL MTT (Organics Research, Inc.) solution in phosphate buffer saline was added to each well. […], supernatant was removed and formazan crystals were dissolved in 200 μL of DMSO. Absorbance was then measured at 570 nm using an absorbance plate reader (Bio-Rad Microplate Reader). Data are expressed as the percentage of viable cells in treated relative to non-treated conditions. Each experiment was repeated thrice and data was expressed as mean±SD of three independent experiments (Mordant, P. et al., Mol. Cancer Ther. 2010, 9, 358).
On the technique in general: Formazan colour is commonly taken as a measure of viable cells.

In data set [4] the test system is MDA-MB-231 (breast cancer). Nature of the data set: Cytotoxicity, MTT assay. The class given is cell-based. To be noted: Homo sapiens, 48 h treatment. The method, then:
as §1

The test system of data set [5] is MIAPaCa-2 (pancreatic cancer). Nature of the data set: Cytotoxicity, MTT assay. The class given is cell-based. As to conditions: Homo sapiens, MIA PaCa-2, 48 h treatment. How it is done:
as §1

For data set [6] the following is noted: via glucuronidation of phenolic hydroxyl group; cited from earlier work.
In data set [7] the target is PI3K-beta (Homo sapiens, UniProt P42338). The data set is described as follows: PI3K-β assay (ADP-Glo). The class given is biochemical.
The target in data set [8] is PI3K-gamma (Homo sapiens, UniProt P48736). The data set is described as follows: PI3K-γ assay (ADP-Glo). Type of data set: biochemical.
Data set [9] has as its target PI3K-delta (Homo sapiens, UniProt O00329). Nature of the data set: PI3K-δ assay (ADP-Glo). The class given is biochemical.
The test system of data set [10] is Ehrlich ascites carcinoma (EAC) cells. The data set is described as follows: In-vivo activity in Ehrlich solid tumor model. Also on record: species or system swiss mice. To be noted: 22 at 25 mg/kg i.p., 5-fluorouracil at 22 mg/kg i.p., day 1-9.
Where [11] appears, read: water (aqueous, pH 7), pH = 7, read-out: Aqueous Solubility (μg/ml) at pH = 7.
[12] abbreviates: water, pH = 7, read-out: Aqueous Solubility (μg/ml) at pH = 7.
Where [13] appears, read: water, in H2O at pH = 7, read-out: Solubility μg/ml in H2O at pH = 7.

Sequence of PI3K-beta (P42338 whole entry): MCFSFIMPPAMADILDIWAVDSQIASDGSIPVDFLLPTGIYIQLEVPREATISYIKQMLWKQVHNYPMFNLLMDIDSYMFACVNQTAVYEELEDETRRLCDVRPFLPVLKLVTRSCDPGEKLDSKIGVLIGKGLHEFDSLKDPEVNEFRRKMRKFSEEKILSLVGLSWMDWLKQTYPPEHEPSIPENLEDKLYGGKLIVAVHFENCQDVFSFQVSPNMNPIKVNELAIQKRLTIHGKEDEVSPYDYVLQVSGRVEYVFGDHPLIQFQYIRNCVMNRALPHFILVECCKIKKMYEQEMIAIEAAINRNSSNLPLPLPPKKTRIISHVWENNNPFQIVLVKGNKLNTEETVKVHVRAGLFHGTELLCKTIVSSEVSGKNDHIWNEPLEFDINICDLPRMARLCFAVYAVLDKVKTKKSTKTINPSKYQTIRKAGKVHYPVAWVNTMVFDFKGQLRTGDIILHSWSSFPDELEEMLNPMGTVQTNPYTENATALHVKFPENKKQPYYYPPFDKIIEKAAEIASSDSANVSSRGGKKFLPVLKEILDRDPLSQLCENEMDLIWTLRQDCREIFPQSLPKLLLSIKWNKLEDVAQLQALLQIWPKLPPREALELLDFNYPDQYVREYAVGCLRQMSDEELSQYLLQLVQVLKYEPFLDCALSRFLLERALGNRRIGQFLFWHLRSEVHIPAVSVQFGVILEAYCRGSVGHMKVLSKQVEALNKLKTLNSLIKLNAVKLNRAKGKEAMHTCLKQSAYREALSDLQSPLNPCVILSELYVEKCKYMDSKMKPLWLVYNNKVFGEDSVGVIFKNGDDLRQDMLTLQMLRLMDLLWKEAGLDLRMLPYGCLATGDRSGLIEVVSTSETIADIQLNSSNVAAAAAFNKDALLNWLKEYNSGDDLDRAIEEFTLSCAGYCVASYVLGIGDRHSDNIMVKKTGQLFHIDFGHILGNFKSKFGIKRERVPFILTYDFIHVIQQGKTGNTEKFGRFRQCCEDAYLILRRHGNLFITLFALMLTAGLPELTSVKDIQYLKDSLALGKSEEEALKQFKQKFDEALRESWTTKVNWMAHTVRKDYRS
Sequence of PI3K-beta (P27986 whole entry partner): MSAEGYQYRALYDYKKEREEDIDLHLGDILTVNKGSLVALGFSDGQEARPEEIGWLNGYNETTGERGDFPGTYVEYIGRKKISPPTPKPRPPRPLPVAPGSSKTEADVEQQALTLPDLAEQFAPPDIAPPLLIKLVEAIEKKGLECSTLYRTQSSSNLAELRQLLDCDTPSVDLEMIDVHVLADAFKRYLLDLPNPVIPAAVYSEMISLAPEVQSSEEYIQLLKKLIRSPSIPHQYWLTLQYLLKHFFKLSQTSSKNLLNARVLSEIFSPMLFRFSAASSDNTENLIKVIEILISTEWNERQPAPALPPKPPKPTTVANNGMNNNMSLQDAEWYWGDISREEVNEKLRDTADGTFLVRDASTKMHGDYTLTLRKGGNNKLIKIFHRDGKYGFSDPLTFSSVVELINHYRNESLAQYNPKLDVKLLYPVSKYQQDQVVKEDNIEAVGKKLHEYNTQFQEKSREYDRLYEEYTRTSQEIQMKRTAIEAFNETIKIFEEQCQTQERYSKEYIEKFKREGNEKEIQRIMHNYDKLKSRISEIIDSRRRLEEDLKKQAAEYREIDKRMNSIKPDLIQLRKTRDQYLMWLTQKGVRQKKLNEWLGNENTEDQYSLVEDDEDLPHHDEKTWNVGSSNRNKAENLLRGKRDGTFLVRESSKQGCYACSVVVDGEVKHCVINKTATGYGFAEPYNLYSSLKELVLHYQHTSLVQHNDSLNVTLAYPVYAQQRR
Sequence of PI3K-gamma (P48736 whole entry): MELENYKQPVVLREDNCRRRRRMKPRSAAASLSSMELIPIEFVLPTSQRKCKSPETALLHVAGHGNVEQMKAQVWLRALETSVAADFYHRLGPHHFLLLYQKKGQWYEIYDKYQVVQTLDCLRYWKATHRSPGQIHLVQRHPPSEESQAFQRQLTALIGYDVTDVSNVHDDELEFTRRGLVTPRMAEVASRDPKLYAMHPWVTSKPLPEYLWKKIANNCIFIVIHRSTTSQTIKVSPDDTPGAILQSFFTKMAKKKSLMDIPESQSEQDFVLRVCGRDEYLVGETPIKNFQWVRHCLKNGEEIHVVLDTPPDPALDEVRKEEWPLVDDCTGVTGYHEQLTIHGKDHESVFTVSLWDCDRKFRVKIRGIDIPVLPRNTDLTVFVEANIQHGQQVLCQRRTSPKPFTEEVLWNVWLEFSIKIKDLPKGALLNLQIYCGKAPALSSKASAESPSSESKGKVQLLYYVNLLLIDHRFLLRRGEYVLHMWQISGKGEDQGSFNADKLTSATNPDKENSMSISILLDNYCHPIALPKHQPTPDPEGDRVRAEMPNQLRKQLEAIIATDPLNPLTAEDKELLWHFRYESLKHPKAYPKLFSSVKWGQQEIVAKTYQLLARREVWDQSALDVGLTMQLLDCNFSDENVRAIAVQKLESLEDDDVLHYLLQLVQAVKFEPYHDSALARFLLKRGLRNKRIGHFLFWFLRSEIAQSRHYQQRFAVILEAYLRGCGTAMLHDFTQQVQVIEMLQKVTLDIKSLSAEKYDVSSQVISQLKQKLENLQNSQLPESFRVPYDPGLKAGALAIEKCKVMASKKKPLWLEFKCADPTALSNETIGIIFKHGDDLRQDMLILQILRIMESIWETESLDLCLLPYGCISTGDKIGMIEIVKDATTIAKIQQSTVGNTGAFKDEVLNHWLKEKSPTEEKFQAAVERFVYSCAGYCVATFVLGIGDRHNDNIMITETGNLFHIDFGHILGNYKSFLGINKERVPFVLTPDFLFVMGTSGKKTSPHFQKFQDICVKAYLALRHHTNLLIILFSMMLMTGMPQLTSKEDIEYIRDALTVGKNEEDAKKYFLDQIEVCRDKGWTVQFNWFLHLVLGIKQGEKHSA
Sequence of PI3K-delta (O00329 whole entry): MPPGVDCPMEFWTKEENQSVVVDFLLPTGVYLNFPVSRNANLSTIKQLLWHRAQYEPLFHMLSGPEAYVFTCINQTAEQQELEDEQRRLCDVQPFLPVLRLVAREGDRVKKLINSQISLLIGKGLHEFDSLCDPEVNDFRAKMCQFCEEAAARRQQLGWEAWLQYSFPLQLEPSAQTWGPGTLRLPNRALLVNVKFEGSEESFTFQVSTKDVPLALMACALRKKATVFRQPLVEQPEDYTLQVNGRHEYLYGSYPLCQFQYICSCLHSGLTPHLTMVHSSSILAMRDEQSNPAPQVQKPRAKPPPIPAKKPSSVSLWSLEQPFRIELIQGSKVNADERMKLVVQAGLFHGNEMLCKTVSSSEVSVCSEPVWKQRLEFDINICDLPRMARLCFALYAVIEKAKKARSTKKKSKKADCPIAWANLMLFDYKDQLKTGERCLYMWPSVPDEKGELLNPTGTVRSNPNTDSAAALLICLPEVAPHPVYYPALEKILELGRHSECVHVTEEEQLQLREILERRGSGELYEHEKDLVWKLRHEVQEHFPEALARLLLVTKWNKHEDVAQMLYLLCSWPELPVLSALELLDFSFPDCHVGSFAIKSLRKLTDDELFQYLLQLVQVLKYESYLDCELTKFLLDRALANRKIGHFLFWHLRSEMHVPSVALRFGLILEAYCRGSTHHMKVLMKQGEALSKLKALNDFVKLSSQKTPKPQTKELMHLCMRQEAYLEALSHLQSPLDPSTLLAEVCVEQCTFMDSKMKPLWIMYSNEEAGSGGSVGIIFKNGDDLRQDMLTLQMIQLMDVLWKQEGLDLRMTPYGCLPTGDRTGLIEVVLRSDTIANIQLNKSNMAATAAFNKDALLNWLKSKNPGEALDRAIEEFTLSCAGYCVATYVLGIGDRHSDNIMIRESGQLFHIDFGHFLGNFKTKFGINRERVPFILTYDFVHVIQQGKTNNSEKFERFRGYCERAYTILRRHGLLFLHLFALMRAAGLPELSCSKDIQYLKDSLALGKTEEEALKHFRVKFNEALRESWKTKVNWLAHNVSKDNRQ
Sequence of PI3K-delta (P27986 whole entry partner): as the sequence (P27986 whole entry partner) above
Sequence of PI3K-alpha (P42336 whole entry, canonical isoform): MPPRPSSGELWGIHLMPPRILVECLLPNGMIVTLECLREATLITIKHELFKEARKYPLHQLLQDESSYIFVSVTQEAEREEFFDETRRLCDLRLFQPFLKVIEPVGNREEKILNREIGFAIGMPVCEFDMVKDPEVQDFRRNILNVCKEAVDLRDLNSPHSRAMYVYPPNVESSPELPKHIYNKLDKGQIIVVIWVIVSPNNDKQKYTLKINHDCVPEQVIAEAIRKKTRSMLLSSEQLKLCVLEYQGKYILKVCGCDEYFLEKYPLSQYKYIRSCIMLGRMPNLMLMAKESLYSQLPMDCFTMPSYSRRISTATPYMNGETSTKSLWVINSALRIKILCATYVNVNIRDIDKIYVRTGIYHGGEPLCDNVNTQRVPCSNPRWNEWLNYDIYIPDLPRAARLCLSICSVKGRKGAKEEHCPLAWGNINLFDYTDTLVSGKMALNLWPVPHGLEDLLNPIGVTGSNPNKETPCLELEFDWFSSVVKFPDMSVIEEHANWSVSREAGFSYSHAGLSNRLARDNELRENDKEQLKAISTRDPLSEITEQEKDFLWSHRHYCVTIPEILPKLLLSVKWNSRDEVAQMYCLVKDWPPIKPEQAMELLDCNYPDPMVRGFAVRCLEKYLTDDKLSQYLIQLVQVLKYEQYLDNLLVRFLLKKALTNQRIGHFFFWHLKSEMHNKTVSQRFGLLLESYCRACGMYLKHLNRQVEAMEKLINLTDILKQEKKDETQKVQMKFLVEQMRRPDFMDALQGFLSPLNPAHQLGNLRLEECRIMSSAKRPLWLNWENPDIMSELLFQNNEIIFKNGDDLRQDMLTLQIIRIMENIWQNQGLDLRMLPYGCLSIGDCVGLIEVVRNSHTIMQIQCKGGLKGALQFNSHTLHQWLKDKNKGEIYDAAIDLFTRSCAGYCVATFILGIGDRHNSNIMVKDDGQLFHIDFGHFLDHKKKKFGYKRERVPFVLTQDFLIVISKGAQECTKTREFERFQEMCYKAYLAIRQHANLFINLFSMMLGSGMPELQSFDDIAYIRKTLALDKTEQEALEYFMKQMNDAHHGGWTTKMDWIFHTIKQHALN
Sequence of PI3K-alpha (P27986 whole entry partner, canonical isoform): as the sequence (P27986 whole entry partner) above

As a reminder, the inhibition is the share of the control response that was lost under treatment. Turning to `CC(C)(C)c1ccc(S(=O)(=O)NC2CCN(c3nc(N4CCOCC4)c4sccc4n3)CC2)cc1` [Compound 28, 4-(tert-butyl)-N-(1-(4-morpholinothieno[3,2-d]pyrimidin-2-yl)piperidin-4-yl)benzenesulfonamide], the inhibition at 0.5 µM in data set [1] came out at 56%. Moreover, the solubility in data set [2] (setting [11]) came out at 20 µg/mL (≈ 38.8 µM).

The IC50 is the concentration that inhibits the measured activity by half. For `O=C(Nc1ccc(C(F)(F)F)cc1)NC1CCN(c2nc(N3CCOCC3)c3sccc3n2)CC1` [Compound 24, 1-(1-(4-morpholinothieno[3,2-d]pyrimidin-2-yl)piperidin-4-yl)-3-(4-(trifluoromethyl)phenyl)urea], the “% PI3Kα inhibition at 500 nM” value in data set [1] is reported as 70%. In data set [1], the inhibition at 0.5 µM was above 70%. For the same molecule, the IC50 in data set [3] stood at 13 µM; in data set [4], 8 µM; in data set [5] it was 9 µM.

In the case of `CN1CCN(C(=O)c2ccc(NC(=O)NC3CCN(c4nc(N5CCOCC5)c5oc6ncccc6c5n4)CC3)cc2)CC1` [Compound 10, 1-(4-(4-methylpiperazine-1-carbonyl)phenyl)-3-(1-(4-morpholinopyrido[3′,2′:4,5]furo[3,2-d]pyrimidin-2-yl)piperidin-4-yl)urea], the “% PI3Kα inhibition at 500 nM” value in data set [1] stood at 76.8%. Moreover, the inhibition at 0.5 µM in data set [1] is above 70%. The IC50 turned out to be 0.08 µM in data set [1] (read-out: IC50 for PI3Kα), 9 µM in data set [3], 40 µM in data set [4] and 8 µM in data set [5]. The “Aqueous Solubility (μg/ml) at pH = 7” value in [2] (pH = 7) came out at 400 μg/ml. For the same molecule, in data set [2] (setting [12]), the solubility was above 200 µg/mL.

Consider `COc1ccc(S(=O)(=O)NC2CCN(c3nc(N4CCOCC4)c4sccc4n3)CC2)cc1` [Compound 27, 4-methoxy-N-(1-(4-morpholinothieno[3,2-d]pyrimidin-2-yl)piperidin-4-yl)benzenesulfonamide], for which the inhibition at 0.5 µM in [1] is 33%.

Take `O=C(Nc1ccccc1F)NC1CCN(c2nc(N3CCOCC3)c3sccc3n2)CC1` [Compound 25, 1-(2-fluorophenyl)-3-(1-(4-morpholinothieno[3,2-d]pyrimidin-2-yl)piperidin-4-yl)urea]: in data set [1], the “% PI3Kα inhibition at 500 nM” value is listed as 76% and the inhibition at 0.5 µM was above 70%. Besides, the solubility in data set [2] (setting [11]) amounted to 200 µg/mL (≈ 438 µM). Also, the solubility in [2] (setting [12]) is above 200 µg/mL.

For the molecule `CC(C)(C)OC(=O)NC1CCN(c2nc(N3CCOCC3)c3sc(C(C)(C)O)cc3n2)CC1` [Compound 17, tert-butyl (1-(6-(2-hydroxypropan-2-yl)-4-morpholinothieno[3,2-d]pyrimidin-2-yl)piperidin-4-yl)carbamate], in data set [1], the “% PI3Kα inhibition at 500 nM” value worked out at 81% and the inhibition at 0.5 µM is above 70%. In [2] (setting [11]), the solubility worked out at 200 µg/mL (≈ 419 µM). Also, in [2] (setting [12]), the solubility is above 200 µg/mL.

With `CCOC(=O)c1ccc(NC(=O)NC2CCN(c3nc(N4CCOCC4)c4sccc4n3)CC2)cc1` [Compound 21, ethyl 4-(3-(1-(4-morpholinothieno[3,2-d]pyrimidin-2-yl)piperidin-4-yl)ureido)benzoate], the inhibition at 0.5 µM in [1] was found to be 59%. In addition, in [2] (setting [11]), the solubility was found to be 120 µg/mL (≈ 235 µM).

`CCOC(=O)c1ccc(NC(=O)NC2CCN(c3nc(N4CCOCC4)c4sc(C(C)(C)O)cc4n3)CC2)cc1` [Compound 26, ethyl 4-(3-(1-(6-(2-hydroxypropan-2-yl)-4-morpholinothieno[3,2-d]pyrimidin-2-yl)piperidin-4-yl)ureido)benzoate]: in [1], the inhibition at 0.5 µM was 40%.

In the case of `Oc1cccc(-c2nc(N3CCOCC3)c3oc4ncccc4c3n2)c1` [PI-103, reference compound], in data set [2] (setting [13]), the solubility amounted to 5 µg/mL (≈ 14.4 µM). Also, the metabolism result in data set [6] is “rapid metabolism”.

Consider `CCOC(=O)c1ccc(NC(=O)NC2CCN(c3nc(N4CCOCC4)c4oc5ncccc5c4n3)CC2)cc1` [Compound 8, ethyl 4-(3-(1-(4-morpholinopyrido[3′,2′:4,5]furo[3,2-d]pyrimidin-2-yl)piperidin-4-yl)ureido)benzoate], for which the “% PI3Kα inhibition at 500 nM” value in data set [1] came to 85%. Besides, the inhibition at 0.5 µM in [1] was above 70%. For the same molecule, the IC50 in data set [1] (read-out: IC50 for PI3K (μM) PI3K-α) was determined as 0.008 µM; in data set [3], 8 µM; in data set [4] it was 8 µM; in data set [5], 8 µM. In data set [2] (setting [11]), the solubility was 10 µg/mL (≈ 18.3 µM).

As to `CS(=O)(=O)N1CCN(Cc2cc3nc(-c4cccc5[nH]ncc45)nc(N4CCOCC4)c3s2)CC1` [GDC-0941, reference compound], the solubility in data set [2] (setting [13]) came to 16 µg/mL (≈ 31.1 µM).

As for `O=S(=O)(NC1CCN(c2nc(N3CCOCC3)c3sccc3n2)CC1)c1ccc2ccccc2c1` [Compound 30, N-(1-(4-morpholinothieno [3,2-d]pyrimidin-2-yl)piperidin-4-yl)naphthalene-2-sulfonamide], in [1], the inhibition at 0.5 µM is 54.8%. Further, the solubility in [2] (setting [11]) is 5 µg/mL (≈ 9.81 µM).

Turning to `Cc1ccccc1NC(=O)NC1CCN(c2nc(N3CCOCC3)c3sccc3n2)CC1` [Compound 23, 1-(1-(4-morpholinothieno[3,2-d]pyrimidin-2-yl)piperidin-4-yl)-3-(o-tolyl)urea], the inhibition at 0.5 µM in data set [1] amounted to 68%. For the same molecule, the solubility in data set [2] (setting [11]) amounted to 20 µg/mL (≈ 44.2 µM).

As for `CC(C)(C)OC(=O)NC1CCN(c2nc(N3CCOCC3)c3sccc3n2)CC1` [Compound 16, tert-butyl (1-(4-morpholino thieno[3,2-d]pyrimidin-2-yl)piperidin-4-yl)carbamate], the inhibition at 0.5 µM in [1] is below 0%.

On to `CC(C)(C)OC(=O)NC1CCN(c2nc(N3CCOCC3)c3oc4ncccc4c3n2)CC1` [Compound 6, tert-butyl (1-(4-morpholinopyrido [3′,2′:4,5]furo[3,2-d]pyrimidin-2-yl)piperidin-4-yl)carbamate], for which the inhibition at 0.5 µM in [1] worked out at 67.3%. The solubility in [2] (setting [11]) is 10 µg/mL (≈ 22 µM).

On to `CCc1ccc(NC(=O)NC2CCN(c3nc(N4CCOCC4)c4sccc4n3)CC2)cc1` [Compound 22, 1-(4-ethylphenyl)-3-(1-(4-morpholinothieno[3,2-d]pyrimidin-2-yl)piperidin-4-yl)urea], for which the inhibition at 0.5 µM in data set [1] is 74%. Besides, the half-inhibitory concentration (IC50) is 0.04 µM in data set [1] (read-out: IC50 for PI3Kα); above 20 µM in data set [7]; above 20 µM in [8]; above 20 µM in data set [9]; 7 µM in [3]; 4 µM in [4]. The molecule also came in with an IC50 in [5] of 5 µM. The “Fold-selectivity for PI3K-α with respect to other isoforms PI3K-β” value in data set [7] (PI3K-α versus PI3K-β) is given as above 500 fold. Moreover, in [7] (up to 20 μM), the “% inhibition of PI3K-β” value is listed as 0%. Further, the “Fold-selectivity for PI3K-α with respect to other isoforms PI3K-γ” value in data set [8] (PI3K-α versus PI3K-γ) is above 500 fold. The “% inhibition of PI3K-γ” value in data set [8] (up to 20 μM) is reported as 0%. The “Fold-selectivity for PI3K-α with respect to other isoforms PI3K-δ” value in [9] is listed as above 500 fold. The “% inhibition of PI3K-δ” value in [9] (up to 20 μM) was 0%. The solubility in data set [2] (setting [13]) came out at 800 µg/mL (≈ 1710 µM). Also, in data set [10] (day 13, versus saline control), the “Day 13 % Tumor Growth Inhibition” value is 32.7% and 32.73%. Moreover, the “Day 13 Avg. tumor weights” value in [10] (day 13) is given as 1128.4 mg.
